Structures are written as SMILES. Structures can show the parent of a compound that is named as a salt. Some results are limits rather than exact numbers.

The record followed here is the supplement of paper PMC3974653.

The assay concerns MTT (mouse pheochromocytoma). Nature of the assay: IC50 of cell viability (ATP content). The settings on record: (24 or 48 h). The procedure, abridged:
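MTT mouse pheochromocytoma cells (5 µl of 200,000 cells/ml per well, white 1536-well plates, DMEM with 5% FBS and 1% horse serum) were cultured overnight at 37°C, 5% CO2. They then received 23 nl library compound in DMSO by pintool at 8 concentrations (final 0.5 nM to 46 µM) for 24 or 48 hrs. CellTiter-Glo ATP luminescence was read after 15 minutes. Signals were normalised to positive-control (100% inhibition) and DMSO (0%) wells, and IC50 came from a four-parameter logistic fit.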
As to `C=CC1=C(C)c2cc3[nH]c(cc4nc(cc5[nH]c(cc1n2)c(C)c5CCC(=O)[O-])C(CCC(=O)[O-])=C4C)c(C)c3C=C` [PROTOPORPHYRIN DISODIUM], the “IC50 of cell viability” value is more than 46 µM. For `O=C(O)c1cccc(-c2noc(-c3ccccc3F)n2)c1` [PTC 124], the “IC50 of cell viability” value is more than 46 µM. In the case of `c1cc2ccc3cccc4ccc(c1)c2c34` [PYRENE] it was more than 46 µM; in that of `C=C/C=C/CC1=C(C)[C@@H](OC(=O)[C@@H]2[C@@H](/C=C(\C)C(=O)OC)C2(C)C)CC1=O.C=C/C=C/CC1=C(C)[C@@H](OC(=O)[C@@H]2[C@@H](C=C(C)C)C2(C)C)CC1=O` [PYRETHRINS/Pestanal], more than 46 µM; in that of `CNC(=O)OCc1cccc(COC(=O)NC)n1` [PYRIDINOL CARBAMATE], more than 46 µM. In the case of `CN(C)C(=O)Oc1ccc[n+](C)c1.[Br-]` [PYRIDOSTIGMINE BROMIDE], the “IC50 of cell viability” value was more than 46 µM. In the case of `Cc1ncc(CO)c(C=O)c1O` [PYRIDOXAL HYDROCHLORIDE] it was more than 46 µM; in that of `Cc1ncc(COP(=O)(O)O)c(C=O)c1O` [PYRIDOXAL PHOSPHATE], more than 46 µM. Consider `Cc1ncc(COP(=O)(O)O)c(CN)c1O` [PYRIDOXAMINE PHOSPHATE], for which the “IC50 of cell viability” value is more than 46 µM. In the case of `Cc1ncc(CSSCc2cnc(C)c(O)c2CO)c(CO)c1O` [PYRITHIOXINE] it was more than 46 µM; in that of `CCC1(CC)C(=O)N\C=C/C1=O` [PYRITHYLDIONE], more than 46 µM; in that of `O=C1CC[C@@H](C(=O)O)N1` [PYRROLIDONE CARBOXYLIC ACID], more than 46 µM. The same measure for `O=[N+]([O-])c1c(Cl)cccc1-c1c[nH]cc1Cl` [PYRROLNITRIN]: more than 46 µM. The same measure for `CCCCC(CC)COC(=O)c1ccc(N(C)C)cc1` (centres undefined) [Padimate O]: more than 46 µM; for `CC(C)CCOC(=O)c1ccc(N(C)C)cc1` [Padimato]: more than 46 µM. Consider `CCCCCCCCCCCCCCCC(=O)NCCO` [Palmitoylethanolamide], for which the “IC50 of cell viability” value is more than 46 µM.

Turning to `NCCC(O)(P(=O)(O)O)P(=O)(O)O` [Pamidronate disodium], the “IC50 of cell viability” value is more than 46 µM.

In the case of `O=C(O)c1cc2ccccc2c(Cc2c(O)c(C(=O)O)cc3ccccc23)c1O` [Pamoic acid], the “IC50 of cell viability” value is more than 46 µM.

Regarding `COc1ccc(Cc2nccc3cc(OC)c(OC)cc23)cc1OC` [Papaverine hydrochloride], the “IC50 of cell viability” value is more than 46 µM.

Turning to `C[C@@H]1C[C@H]2C3C[C@H](F)\C4=C\C(=O)\C=C/C4(C)C3[C@@H](O)CC2(C)[C@@]1(O)C(=O)COC(C)=O` (some centres undefined) [Paramethasone acetate], the “IC50 of cell viability” value was more than 46 µM. In the case of `CCC(=O)Nc1ccc(O)cc1` [Parapropamol] it was more than 46 µM; in that of `CCC(=O)[N-]S(=O)(=O)c1ccc(-c2c(-c3ccccc3)noc2C)cc1` [Parecoxib sodium], more than 46 µM; in that of `C#CCN(C)Cc1ccccc1` [Pargyline hydrochloride], more than 46 µM. In the case of `C[C@H](/C=C/[C@H](C)C(C)(C)O)[C@H]1CC[C@H]2/C(=C/C=C3C[C@@H](O)C[C@H](O)C3)CCC[C@]12C` [Paricalcitol] it was more than 46 µM; in that of `Fc1ccc(C2CCNCC2COc2ccc3c(c2)OCO3)cc1` (centres undefined) [Paroxetine], more than 46 µM; in that of `Nc1ccc(C(=O)[O-])c(O)c1` [Pasiniazid], more than 46 µM. On to `Cc1ccc(Nc2nccc(N(C)c3ccc4c(C)n(C)nc4c3)n2)cc1[S+](N)(=O)[O-]` [Pazopanib], for which the “IC50 of cell viability” value was more than 46 µM. The same measure for `CN1CCCC(CN2c3ccccc3Sc3ccccc32)C1` (centres undefined) [Pecazina]: more than 46 µM.

Consider `CC(C)(C)NC[C@@H](O)COc1ccccc1C1CCCC1` [Penbutolol sulfate], for which the “IC50 of cell viability” value is more than 46 µM. In the case of `OC1(c2ccc(Cl)c(C(F)(F)F)c2)CCN(CCCC(c2ccc(F)cc2)c2ccc(F)cc2)CC1` [Penfluridol] it was more than 46 µM; in that of `Nc1c(Cl)c(Cl)c(Cl)c(Cl)c1Cl` [Pentachloroaniline], more than 46 µM. On to `CSCCC(NC(=O)C(Cc1c[nH]c2ccccc12)NC(=O)CCNC(=O)OC(C)(C)C)C(=O)NC(CC(=O)O)C(=O)NC(Cc1ccccc1)C(N)=O` (centres undefined) [Pentagastrin], for which the “IC50 of cell viability” value is more than 46 µM. The same measure for `O=C(O)CN(CCN(CC(=O)O)CC(=O)O)CCN(CC(=O)O)CC(=O)O` [Pentetic acid]: more than 46 µM. The same measure for `OCC1(CO)COC(C(Cl)(Cl)Cl)OC1` [Penthrichloral]: more than 46 µM. The same measure for `C[N+]1(CCCCC[N+]2(C)CCCC2)CCCC1.O=C([O-])[C@@H](O)[C@@H](O)C(=O)O.O=C([O-])[C@@H](O)[C@@H](O)C(=O)O` [Pentolinium bitartrate]: more than 46 µM; for `OC[C@H]1O[C@@H](n2cnc3c2N=CNC[C@H]3O)C[C@@H]1O` [Pentostatin]: more than 46 µM. For the molecule `CC(=O)CCCCn1c(=O)c2c(ncn2C)n(C)c1=O` [Pentoxifylline], the “IC50 of cell viability” value was more than 46 µM. Turning to `CN1CCN(CCCN2c3ccccc3Sc3ccccc32)CC1` [Perazine], the “IC50 of cell viability” value was more than 46 µM. Take `FC(F)(F)C(F)(F)C(F)(F)C(F)(F)C(F)(F)C(F)(F)C(F)(F)C(F)(F)Br` [Perflubron]: the “IC50 of cell viability” value is more than 46 µM. In the case of `O=[S+]([O-])(O)C(F)(F)C(F)(F)C(F)(F)C(F)(F)C(F)(F)C(F)(F)C(F)(F)C(F)(F)F` [Perfluorooctane sulfonic acid], the “IC50 of cell viability” value was more than 46 µM.

For the molecule `CCCCCCCCCCCCCCCCCCOP(=O)([O-])OC1CC[N+](C)(C)CC1` [Perifosine], the “IC50 of cell viability” value was more than 46 µM.

Regarding `CCC[C@@H](N[C@@H](C)C(=O)N1[C@@H](C(=O)O)C[C@@H]2CCCC[C@@H]21)C(=O)OCC` [Perindopril], the “IC50 of cell viability” value is more than 46 µM. In the case of `CN1CCN(C2=Nc3ccccc3Cc3ccccc32)CC1` [Perlapine] it was more than 46 µM; in that of `OCCN1CCN(CCCN2c3ccccc3Sc3ccc(Cl)cc32)CC1` [Perphenazine], more than 46 µM. In the case of `CN1CCN(C(=O)C2CCCCC2)CC1` [Pexantel] it was more than 46 µM. Turning to `C=C(Nc1ccc(OCC)cc1)Nc1ccc(OCC)cc1` [Phenacaine hydrochloride], the “IC50 of cell viability” value was more than 46 µM. The same measure for `CCOc1ccc(/N=C(\C)Nc2ccc(OCC)cc2)cc1` [Phenacaine hydrochloride]: more than 46 µM; for `CCOc1ccc(NC(C)=O)cc1` [Phenacetin]: more than 46 µM.

With `CN1N(C(=O)/C=C1/C)C2=CC=CC=C2` [Phenazone], the “IC50 of cell viability” value is more than 46 µM. `[K+].C[C@H](OC1=CC=CC=C1)C(=O)N[C@H]2[C@@H]3SC(C)(C)[C@@H]([N@@]3C2=O)C([O-])=O` [Phenethicillin potassium salt]: the “IC50 of cell viability” value was more than 46 µM. The same measure for `N=C(N)NC(=N)NCCc1ccccc1.[Cl-].[H+]` [Phenformin HCl]: more than 46 µM; for `N=C(N)NC(=N)NCCc1ccccc1` [Phenformin hydrochloride]: more than 46 µM; for `O=C1c2ccccc2C(=O)C1c1ccccc1` [Phenindione]: more than 46 µM. Take `C[NH+](C)CCC(c1ccccc1)c1cccc[nH+]1.O=C([O-])CC(=O)[O-]` (centres undefined) [Pheniramine maleate]: the “IC50 of cell viability” value is more than 46 µM. In the case of `CC1NCCOC1c1ccccc1` (centres undefined) [Phenmetrazine Hydrochloride] it was more than 46 µM; in that of `Oc1ccccc1` [Phenol], more than 46 µM. As to `O=C1OC(c2ccc(O)cc2)(c2ccc(O)cc2)c2ccccc21` [Phenolphthalein], the “IC50 of cell viability” value was more than 46 µM. The same measure for `c1ccc2c(c1)Nc1ccccc1S2` [Phenothiazine]: more than 46 µM; for `O=C(O)COc1ccccc1` [Phenoxy acetic acid]: more than 46 µM. With `CC(COc1ccccc1)N[NH3+]` (centres undefined) [Phenoxypropazine], the “IC50 of cell viability” value was more than 46 µM. For `NC(=O)OCCCc1ccccc1` [Phenprobamate], the “IC50 of cell viability” value is more than 46 µM. The same measure for `CN1C(=O)C[C@H](c2ccccc2)C1=O` [Phensuximide]: more than 46 µM; for `CN(C)CCOc1ccccc1Cc1ccccc1.Nc1ccc(C(=O)O)c(O)c1` [Phentoloxamine and PAS]: more than 46 µM; for `O=C(CCCCCCCCC#CI)Oc1ccccc1` [Phenyl 11-iodo-10-undecynoate]: more than 46 µM. Turning to `O=C(Oc1ccccc1)c1ccccc1O` [Phenyl salicylate], the “IC50 of cell viability” value was more than 46 µM. In the case of `CCCCC1C(=O)N(c2ccccc2)N(c2ccccc2)C1=O` [Phenylbutazone] it was more than 46 µM. The same measure for `C[C@H](N)[C@@H](O)c1ccccc1` [Phenylpropanolamine hydrochloride]: more than 46 µM. The same measure for `COP(=S)(OC)SCN1C(=O)c2ccccc2C1=O` [Phosmet]: more than 46 µM; for `O=C(O)CP(=O)(O)O` [Phosphonoacetic acid]: more than 46 µM.
